According to ChEMBL document CHEMBL1201862, “PubChem BioAssay data set” (2004):
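Step 1: Grow cells in 96-well plates. Step 2: Expose to compound for 48 hours at 5 concentrations. Step 3: Interpolate endpoints linearly; if unreached, use highest concentration. GI50 = concentration required for 50% inhibition of growth.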 Calls of active or inactive are those of the source. Rule as the data show it: active = GI50 up to about 1.1 µM and inactive = higher.

How the values were obtained:
Test in all cases: NCI tumour cell line growth inhibition, 48 h
786-0 = system: 786-0
CAKI-1 = system: CAKI-1
DU-145 = system: DU-145
LOX IMVI = system: LOX IMVI
M14 = system: M14
MDA-MB-231 = system: MDA-MB-231
MDA-MB-435 = system: MDA-MB-435
NCI-H226 = system: NCI-H226
NCI-H522 = system: NCI-H522
OVCAR-5 = system: OVCAR-5
RXF 393 = system: RXF 393
SF-268 = system: SF-268
SF-295 = system: SF-295
SK-MEL-28 = system: SK-MEL-28
SN12C = system: SN12C
TK-10 = system: TK-10
U-251 = system: U-251
CCRF-CEM = system: CCRF-CEM
MCF7 = system: MCF7
RPMI-8226 = system: RPMI-8226

Compound	GI50 (786-0)	GI50 (CAKI-1)	GI50 (DU-145)	GI50 (LOX IMVI)	GI50 (M14)	GI50 (MDA-MB-231)	GI50 (MDA-MB-435)	GI50 (NCI-H226)	GI50 (NCI-H522)	GI50 (OVCAR-5)	GI50 (RXF 393)	GI50 (SF-268)	GI50 (SF-295)	GI50 (SK-MEL-28)	GI50 (SN12C)	GI50 (TK-10)	GI50 (U-251)	GI50 (CCRF-CEM)	GI50 (MCF7)	GI50 (RPMI-8226)
NCC(=O)Nc1ccccc1	> 100 µM (inactive)	> 100 µM (inactive)	> 100 µM (inactive)	> 100 µM (inactive)	> 100 µM (inactive)	15.5 µM (inactive)	> 100 µM (inactive)	> 100 µM (inactive)	> 100 µM (inactive)	> 100 µM (inactive)	> 100 µM (inactive)	> 100 µM (inactive)	> 100 µM (inactive)	> 100 µM (inactive)	> 100 µM (inactive)	> 100 µM (inactive)	> 100 µM (inactive)			
CCOC(=O)CCC(NC(=O)OCc1ccccc1)C(=O)NC(CCC(=O)OCC)C(=O)NC(CCC(=O)OCC)C(=O)NNC(=O)OC(C)(C)C (stereo not given)	> 100 µM (inactive)				> 100 µM (inactive)	> 100 µM (inactive)		> 100 µM (inactive)		> 100 µM (inactive)	> 100 µM (inactive)			> 100 µM (inactive)	> 100 µM (inactive)	> 100 µM (inactive)	> 100 µM (inactive)	49 µM (inactive)	> 100 µM (inactive)	> 100 µM (inactive)
Cc1cc(OC(=O)Nc2cccc3ccccc23)c(C(C)C)cc1C(=S)Nc1ccccc1	23.4 µM (inactive)	22.1 µM (inactive)	22.3 µM (inactive)	14.7 µM (inactive)	18.6 µM (inactive)		18.1 µM (inactive)		14.1 µM (inactive)	20.7 µM (inactive)		23.9 µM (inactive)	0.0608 µM (active)	18 µM (inactive)			18.1 µM (inactive)	7.6 µM (inactive)	17.4 µM (inactive)	21.1 µM (inactive)
CCOC(=O)C1=C(N)N(c2ccccc2)/C(=C2\SC(=S)N(c3ccc(C)cc3)C2=O)S1	29.3 µM (inactive)		89.9 µM (inactive)		> 100 µM (inactive)	22.6 µM (inactive)	> 100 µM (inactive)	33.6 µM (inactive)	34.3 µM (inactive)	61.9 µM (inactive)		29.5 µM (inactive)	21 µM (inactive)	23.4 µM (inactive)	35.8 µM (inactive)	48.4 µM (inactive)	29.6 µM (inactive)	54.2 µM (inactive)	87.5 µM (inactive)	93.1 µM (inactive)
Cc1c(C(=O)C/C(=N\O)C(=O)Nc2cc(Cl)c(Cl)cc2Cl)[n+]([O-])c2ccccc2[n+]1[O-]	22.2 µM (inactive)	34 µM (inactive)		6.65 µM (inactive)	4.5 µM (inactive)			17 µM (inactive)	3.96 µM (inactive)	24.4 µM (inactive)	22.5 µM (inactive)	17.8 µM (inactive)	25.9 µM (inactive)	22.4 µM (inactive)	4.83 µM (inactive)	29.2 µM (inactive)	11 µM (inactive)	32.7 µM (inactive)		9.33 µM (inactive)
Cc1cc(OCC(=O)N/N=C/C(Br)=C/c2ccccc2)nc(SCC(=O)N/N=C/C(Br)=C/c2ccccc2)n1	34.8 µM (inactive)	> 100 µM (inactive)	58.3 µM (inactive)	> 100 µM (inactive)	> 100 µM (inactive)		> 100 µM (inactive)		26.6 µM (inactive)	> 100 µM (inactive)	49.1 µM (inactive)	48.2 µM (inactive)	> 100 µM (inactive)	> 100 µM (inactive)	> 100 µM (inactive)		> 100 µM (inactive)	> 100 µM (inactive)	75.7 µM (inactive)	68.5 µM (inactive)
CC(SC(=S)Nc1cccc(F)c1)C(=O)O (stereo not given)	34.4 µM (inactive)	45.8 µM (inactive)		16.1 µM (inactive)	16.8 µM (inactive)			20.1 µM (inactive)	13.4 µM (inactive)	46.5 µM (inactive)	14.2 µM (inactive)	13.6 µM (inactive)	23.9 µM (inactive)	16.1 µM (inactive)	50.7 µM (inactive)	29.2 µM (inactive)	28.9 µM (inactive)	21.2 µM (inactive)		15.6 µM (inactive)
CC(/C=N/N=C1NCCCCN1)=N\N=C1NCCCCN1	> 100 µM (inactive)	> 100 µM (inactive)		16.7 µM (inactive)	18.2 µM (inactive)	> 100 µM (inactive)	47.9 µM (inactive)	> 100 µM (inactive)	> 100 µM (inactive)	> 100 µM (inactive)	> 100 µM (inactive)	> 100 µM (inactive)	47.2 µM (inactive)	> 100 µM (inactive)	> 100 µM (inactive)	> 100 µM (inactive)	> 100 µM (inactive)	> 100 µM (inactive)	64.9 µM (inactive)	> 100 µM (inactive)
